Assay results as given in patent US5120751A, “Benzoylphenyl pyridinylthiazolidine compounds as platelet activating antagonists” (Abbott Laboratories, priority 1991, dated 1992).
Where a name gives a salt, the structure may show the parent alone.

Molecular target: PAF receptor (Oryctolagus cuniculus, UniProt G1TEI7)
Experiment: PAF receptor binding assay: inhibition of specific [3H]C18-PAF binding to rabbit platelet membranes
Settings: 0.6 nM [3H]C18-PAF, 60 minutes at 22-23 °C, pH 7.0, Ki calculated from IC50 (Cheng and Prusoff)

Sequence of PAF receptor (G1TEI7 1-342): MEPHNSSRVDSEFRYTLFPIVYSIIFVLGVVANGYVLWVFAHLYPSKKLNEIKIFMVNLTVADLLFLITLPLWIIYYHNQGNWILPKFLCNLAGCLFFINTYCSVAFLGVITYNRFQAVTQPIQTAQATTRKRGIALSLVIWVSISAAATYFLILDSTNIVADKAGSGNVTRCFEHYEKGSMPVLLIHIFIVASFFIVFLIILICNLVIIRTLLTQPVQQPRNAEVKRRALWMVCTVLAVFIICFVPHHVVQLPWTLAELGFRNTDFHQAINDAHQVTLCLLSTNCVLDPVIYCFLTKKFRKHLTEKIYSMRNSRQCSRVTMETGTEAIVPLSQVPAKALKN

| Ki [nM] | Structure (SMILES) |
| --- | --- |
| 2600 | COc1cc(C(=O)c2cccc(N(C)C(=O)C3CSC(c4cccnc4)S3)c2)cc(OC)c1OC (stereo not drawn) [Example 16, N-[3-(3,4,5-trimethoxybenzoyl)phenyl] N-methyl 2-(3-pyridinyl)-4-dithiolanecarboxamide hydrochloride] |
| 1300 | O=C(Nc1cccc(C(=O)c2ccccc2)c1)NC1CSC(c2cccnc2)S1 (stereo not drawn) [Example 17a, N-(3-benzoylphenyl) N'-[2-(3-pyridinyl)dithiolan-4-yl] urea] |
| 260 | O=C(Nc1cccc(C(=O)c2ccccc2)c1)NC1CSC(c2cccnc2)S1 (stereo not drawn) [Example 17b, N-(3-benzoylphenyl) N'-[2-(3-pyridinyl)dithiolan-4-yl] urea] |
| 650 | COc1cc(C(=O)c2cccc(NC(=O)NC3CSC(c4cccnc4)S3)c2)cc(OC)c1OC (stereo not drawn) [Example 18a, N-[3-(3,4,5-trimethoxybenzoyl)phenyl] N'-[2-(3-pyridinyl)dithiolan-4-yl] urea] |
| 35 | COc1cc(C(=O)c2cccc(NC(=O)NC3CSC(c4cccnc4)S3)c2)cc(OC)c1OC (stereo not drawn) [Example 18b, N-[3-(3,4,5-trimethoxybenzoyl)phenyl] N'-[2-(3-pyridinyl)dithiolan-4-yl] urea] |
| 2900 | CN(C(=O)NC1CSC(c2cccnc2)S1)c1cccc(C(=O)c2ccccc2)c1 (stereo not drawn) [Example 19a, N-methyl-N-(3-benzoylphenyl) N'-[2-(3-pyridinyl)dithiolan-4-yl] urea] |
| 7000 | CN(C(=O)NC1CSC(c2cccnc2)S1)c1cccc(C(=O)c2ccccc2)c1 (stereo not drawn) [Example 19b, N-methyl-N-(3-benzoylphenyl) N'-[2-(3-pyridinyl)dithiolan-4-yl] urea] |
| 260 | COc1cc(C(=O)c2cccc(N(C)C(=O)NC3CSC(c4cccnc4)S3)c2)cc(OC)c1OC (stereo not drawn) [Example 20a, N-methyl-N-[3-(3,4,5-trimethoxybenzoyl)phenyl] N'-[2-(3-pyridinyl)dithiolan-4-yl] urea] |
| 2200 | COc1cc(C(=O)c2cccc(N(C)C(=O)NC3CSC(c4cccnc4)S3)c2)cc(OC)c1OC (stereo not drawn) [Example 20b, N-methyl-N-[3-(3,4,5-trimethoxybenzoyl)phenyl] N'-[2-(3-pyridinyl)dithiolan-4-yl] urea] |
| 780 | O=C(c1ccccc1)c1cccc(NC(=O)C2CCC(c3cccnc3)N2)c1 (stereo not drawn) [Example 21, N-(3-benzoylphenyl)-2-(3-pyridyl)-5-pyrrolidinecarboxamide] |

Continued, compound first:

| Structure (SMILES) | Ki [nM] |
| --- | --- |
| O=C(c1ccccc1)c1cccc(NC(=O)C2CSC(c3cccnc3)N2)c1 (stereo not drawn) [Example 1, N-(3-benzoylphenyl) 2-(3-pyridinyl)-4-thiazolidine carboxamide] | 5 |
| CC(C)(C)OC(=O)N1C(C(=O)Nc2cccc(C(=O)c3ccccc3)c2)CSC1c1cccnc1 (stereo not drawn) [Example 2, N-(3-benzoylphenyl) 2-(3-pyridinyl)-3-tert-butoxycarbonyl-4-thiazolidinecarboxamide] | 100000 |
| COc1cc(C(=O)c2cccc(NC(=O)C3CSC(c4cccnc4)N3)c2)cc(OC)c1OC (stereo not drawn) [Example 4, N-[3-(3,4,5-trimethoxybenzoyl)phenyl] 2-(3-pyridinyl)-4-thiazolidinecarboxamide dihydrochloride] | 1 |
| COc1ccc(C(=O)c2cccc(NC(=O)C3CSC(c4cccnc4)N3)c2)cc1 (stereo not drawn) [Example 5, N-[3-(4-methoxybenzoyl)phenyl] 2-(3-pyridinyl)-4-thiazolidinecarboxamide dihydrochloride] | 34 |
| O=C(c1cccc(NC(=O)C2CSC(c3cccnc3)N2)c1)c1ccc2c(c1)OCO2 (stereo not drawn) [Example 6, N-[3-(3,4-methylenedioxybenzoyl)phenyl] 2-(3-pyridinyl)-4-thiazolidinecarboxamide dihydrochloride] | 33 |
| COc1cc(OC)cc(C(=O)c2cccc(NC(=O)C3CSC(c4cccnc4)N3)c2)c1 (stereo not drawn) [Example 7, N-[3-(3,5-dimethoxybenzoyl)phenyl] 2-(3-pyridinyl)-4-thiazolidinecarboxamide dihydrochloride] | 2 |
| COc1ccc(C(=O)c2cccc(NC(=O)C3CSC(c4cccnc4)N3)c2)cc1OC (stereo not drawn) [Example 8, N-[3-(3,4-dimethoxybenzoyl)phenyl] 2-(3-pyridinyl)-4-thiazolidinecarboxamide dihydrochloride] | 6 |
| O=C(c1ccccc1)c1cccc(NC(=O)C2CSC(c3cccnc3)S2)c1 (stereo not drawn) [Example 9, N-(3-benzoylphenyl) 2-(3-pyridinyl)-4-dithiolanecarboxamide] | 23 |
| COc1cc(C(=O)c2cccc(NC(=O)C3CSC(c4cccnc4)S3)c2)cc(OC)c1OC (stereo not drawn) [Example 10, N-[3-(3,4,5-trimethoxybenzoyl)phenyl] 2-(3-pyridinyl)-4-dithiolanecarboxamide] | 570 |
| O=CN1C(C(=O)Nc2cccc(C(=O)c3ccccc3)c2)CSC1c1cccnc1 (stereo not drawn) [Example 11, N-(3-benzoylphenyl) 2-(3-pyridinyl)-3-formyl-4-thiazolidinecarboxamide] | 500 |
| CNC(=O)N1C(C(=O)Nc2cccc(C(=O)c3ccccc3)c2)CSC1c1cccnc1 (stereo not drawn) [Example 12, N-(3-benzoylphenyl) 2-(3-pyridinyl)-3-(N-methylcarbamoyl)-4-thiazolidinecarboxamide] | 700 |
| O=C(CC1CSC(c2cccnc2)N1)Nc1cccc(C(=O)c2ccccc2)c1 (stereo not drawn) [Example 13, N-(3-benzoylphenyl) 2-(3-pyridinyl)-thiazolid-4-ylacetamide] | 5800 |
| NC(=O)N1C(CC(=O)Nc2cccc(C(=O)c3ccccc3)c2)CSC1c1cccnc1 (stereo not drawn) [Example 14, N-(3-benzoylphenyl) 2-(3-pyridinyl)-3-carbamoylthiazolid-4-ylacetamide] | 150 |
| CN(C(=O)C1CSC(c2cccnc2)N1)c1cccc(C(=O)c2ccccc2)c1 (stereo not drawn) [Example 15, N-(3-benzoylphenyl) N-methyl 2-(3-pyridinyl)-4-thiazolidinecarboxamide dihydrochloride] | 620 |
